{"source": "patent US11230711B2", "about": "“Inhibition of LET7I as a means to enhance the protective effect of progesterone against stroke” (UNIVERSITY OF NORTH TEXAS HEALTH SCIENCE CENTER, priority 2017, dated 2022)", "key": {"[1]": {"system": "primary cortical astrocytes", "assay": "BDNF release from primary cortical astrocytes, BDNF in situ ELISA", "type": "cell-based, mouse", "experimental": "To define the amount of endogenous BDNF released, we will modify the ELISA in situ protocol developed by Promega. A 96-well Nunc MaxiSorp surface polystyrene flat-bottom immunoplate was precoated with an anti-BDNF monoclonal antibody [diluted 1:1,000 in coating buffer (25 mM sodium bicarbonate and 25 mM sodium carbonate, pH 9.7)]. After rinsing off unbound antibody with TBS-T buffer [20 mM Tris-HCl (pH 7.6), 150 mM NaCl and 0.05% (v/v) Tween-20] and blocking the plate to minimize nonspecific binding, the culture media was added to the plate for 2 hrs to equilibrate the cell growth environment. […] The amount of specifically bound polyclonal antibody was then detected through the use of the anti-IgY-horseradish peroxidase (HRP) tertiary antibody (final concentration=0.5 μg/mL), which when exposed to the chromogenic substrate (TMB reagent; Promega), changes color in proportion to the amount of BDNF present in the sample. The color intensity was quantified by measuring the absorbance at 450 nm with a Viktor3 ELISA plate reader (Perkin Elmer). […] The amount of specifically bound polyclonal antibody was then detected through the use of the anti-IgY-horseradish peroxidase (HRP) tertiary antibody, which when exposed to the chromogenic substrate (TMB reagent, Promega), changes color in proportion to the amount of BDNF present in the sample. […]"}, "[2]": {"system": "C57BL/6J mice", "assay": "Ischemic lesion / infarct size by TTC staining after middle cerebral artery occlusion (MCAo)", "type": "in vivo, mouse", "from_the_text": "Mice will receive bilateral ovariectomy (OVX) using a dorsal approach under isoflurane anesthesia. A small cut is made through skin and abdominal muscles in left and right lateral abdomen. The arteries to left and right ovaries will be ligated, and ovaries will be cut. The muscles and skin will be sutured with 4-0 Vicryl absorbable suture.\nFused steroid pellets will be made using the flash-melt method described by Ratka and Simpkins. The pellets (containing P4 or control) will be implanted subcutaneously into abdominal area.\nMCAo will be used to induce transient focal cerebral ischemia (as previously described). Briefly, under isoflurane anesthesia, a mid line incision will be made on the neck. Common carotid artery (CCA), external carotid artery (ECA) and internal carotid artery (ICA) will be dissected from the connective tissue. A silicon coated 6-0 nylon monofilament will be inserted into the left ECA and advanced till it occludes the origin of MCA. The MCA will be occluded for 60 minutes and then reperfusion attained by withdrawing the suture.\nICV injections will be performed as described by Sananbenesi et al.. In brief, mice will be anaesthetized and affixed with a cannula ipsilateral to the side of surgery (coordinates from Bregma: AP1/4_0.4 mm, L1/4_1.15 mm, V1/4_2.0 mm). […]"}}, "data": [{"compound": "CC(=O)[C@H]1CC[C@H]2[C@@H]3CCC4=CC(=O)CC[C@]4(C)[C@H]3CC[C@]12C", "note": "[P4, progesterone]", "values": [{"measurement": "BDNF release in P4-treated cultures", "setting": "[1]; astrocyte cultures, control cultures as little as 2 pg/ml", "result": "~250", "unit": "pg/mL"}, {"measurement": "P4-induced BDNF release after OGD", "setting": "[1]; primary cortical astrocytes exposed to one-hour OGD, FIG. 8B", "result": "compromised"}, {"measurement": "stroke-induced lesion size (ischemic injury), TTC stain", "setting": "[2]; Example 1, MCAo mice, P4 pellet, ICV Let-7i antagomir, FIG. 6", "result": "no statistically significant effect"}, {"measurement": "relative infarct size (ischemic injury), TTC staining", "setting": "[2]; Example 2, 24 h after MCAo, vs cholesterol+scrambled, FIG. 12B", "result": "did not"}]}]}
